Source: patent EP3685668B1, “COMPOSITION COMPRISING ACIBENZOLAR-S-METHYL AS EFFECTIVE INGREDIENT FOR CONTROLLING BURSAPHELENCHUS XYLOPHILUS DISEASE AND METHOD FOR CONTROLLING BURSAPHELENCHUS XYLOPHILUS USING SAME” (Industry Foundation of Chonnam National University, priority 2017, dated 2019)

What was measured:
[1] = test system: Bursaphelenchus xylophilus; test: Occurrence of pine wilt disease after trunk injection of induced resistance candidate materials, in vivo test in young red pine trees; details: red pine tree (Pinus densiflora), trunk injection 100 µℓ per tree, 30 days after inoculation
Experimental: By using the 15 types of an induced resistance elicitors which have been known to induce the plant resistance against various diseases as candidates, their controlling effect against pine wilt disease was examined. The control efficacy of candidates against pine wilt disease was analyzed according to an in vivo test using red pine tree (Pinus densiflora) which was 2-year old young pine trees (diameter of 5.5 mm or so, and height of about 35 mm).
As a candidate group of an induced resistance material, two kinds of acibenzolar-S-methyl (ASM), TDL (Tiadinil), ITL (Isotianil), PBZ (Probenzole), AZO (Azoxystrobin), VMA (Validamycin A), MeJA (Methyl jasmonate), BABA (DL-3-aminobutyric acid), 2,3-BDO (2,3-Butanediol), SA (salicyclic acid), GABA (r-Aminobutyric acid), glucan (Glucan), ER (Ergosterol), and AZA (Azelaic acid) were used. Only the use of acibenzolar-S-methyl is according to the invention. Injection of the chemicals was carried out by trunk injection method, i.e., at an angle of 45°, a borehole was created by using an electric drill with thickness of 1.5 mm on a pine stem part that is 5 to 10 cm above the soil surface, a tip (200 µℓ) was inserted to the hole, and, after dissolving the candidate material at concentration level of 200, 20, or 2 µg/mℓ in each solvent, the solution was injected in an amount of 100 µℓ per pine tree. After the injection of the chemical agent, the end part of the tip was sealed with parafilm.
The pine tree wilt nematodes (Bursaphelenchus xylophilus, National Institute of Forest Science (NIFoS), South Korea) was incubated at 25°C by feeding them with Botrytis cinerea, which have been cultured on a potato dextrose agar (PDA) medium, and after one week incubation, they were collected by Baermann funnel method and were adjusted to the level of 20,000 worms/mℓ by examining the number of the worms under an optical microscope. One week after the chemical treatment, the inoculation of the pine tree wilt nematodes was carried out by tree barking inoculation of 100 µℓ, i.e., 2,000 worms, per tree, and the result was determined 30 days after the inoculation. […] [Table 1] Occurrence rate of pine wilt disease in candidate group of induced resistance materials

[2] = test system: Bursaphelenchus xylophilus; test: Control efficacy against pine wilt disease by trunk injection, foliar spraying or soil drenching, greenhouse, red pine trees; format: in vivo; details: red pine tree, Trunk injection, 20,000 µg/mℓ, observed for 80 days
[3] = test system: Bursaphelenchus xylophilus; test: In vitro nematicidal activity, 96-well microplate; details: after 3 days
Experimental: To test the nematicidal activity of acibenzolar-S-methyl, a suspension of Bursaphelenchus xylophilus was diluted in a 96-well microplate to have 50 worms/99 µℓ in each well and used for the treatment. […] Each treatment was repeated 3 times, and "A Pharm" (emamectin benzoate, 2.15%), which is a chemical pesticide, was used as a control group. After the treatment, the 96-well plate was kept in a plastic box having water-soaked wipes spread on the bottom to maintain 100% humidity, and, after covering the box with black cloth, the box was stored in a dark state with blockage of light. The observation was made after 3 days. […] [Table 2] Nematicidal activity of acibenzolar-S-methyl against Bursaphelenchus xylophilus

[4] = test system: Bursaphelenchus xylophilus; test: Control efficacy against pine wilt disease by trunk injection, foliar spraying or soil drenching, greenhouse, red pine trees; format: in vivo; details: red pine tree, observed for 80 days
Experimental: The control efficacy of acibenzolar-S-methyl, which shown to have the highest activity in Example 1, was determined by three different treatment methods, i.e., trunk injection, foliar spraying, and soil drenching. For in vivo pathogenesis test, 2-year old young red pine trees (diameter of 5.5 mm or so, and height of about 35 mm) were used like Example 2.
For the trunk injection, a borehole was created at an angle of 45° by using an electric drill with thickness of 1.5 mm on a pine stem part that is 5 to 10 cm above the soil surface, a tip (200 µℓ) was inserted to the hole, and the working solution of chemicals was injected in an amount of 100 µℓ per pine tree after dissolving acibenzolar-S-methyl at concentration of 0.2 or 10 mg/mℓ in an aqueous solution containing 10% acetone and 10% methanol. After the treatment, the end part of the tip was sealed with parafilm, and a small hole was created thereon as an airflow hole. For the foliar spraying, a pre-treatment with Tween 20 (250 µg/mℓ) was carried out at 5 mℓ per pine tree to help the adsorption of the chemical on pine leaves, followed by drying for 2 hours. After drying, acibenzolar-S-methyl was dissolved at concentration of 1.6 mg/mℓ in an aqueous solution containing 10% acetone and Tween 20 (250 µg/mℓ) and the dissolved solution was filled in microsprayer and was applied 5 mℓ per pine tree by foliar spraying. For the soil drenching, acibenzolar-S-methyl was dissolved at concentration level of 0.2 mg/mℓ in an aqueous solution containing 10% acetone and Tween 20 (250 µg/mℓ), and this solution was used for soil drenching in a pot with planted pine tree, 40 mℓ per pine tree. […] [Table 3] The control efficacy of acibenzolar-S-methyl against pine wilt disease by various treatment methods

[5] = Foliar spraying, 1,600 µg/mℓ, 5 mℓ per tree
[6] = Soil drenching, 200 µg/mℓ, 40 mℓ per tree

O=C(O)c1ccccc1O [SA, salicyclic acid]
Occurrence rate of pine wilt disease: Number of pine trees showing wilt symptoms / Number of pine trees used for the test ([1]; 2 µg/mℓ): 2/3
Occurrence rate of pine wilt disease: Number of pine trees showing wilt symptoms / Number of pine trees used for the test ([1]; 20 µg/mℓ): 1/3
Occurrence rate of pine wilt disease: Number of pine trees showing wilt symptoms / Number of pine trees used for the test ([1]; 200 µg/mℓ): 0/3

emamectin benzoate
Control value (%) [2]: 100%
Disease occurrence rate (%) [2]: 0%
Nematicidal rate (%) ([3]; 0.11 µg/mℓ): 98.77%
Nematicidal rate (%) ([3]; 0.33 µg/mℓ): 100%
Nematicidal rate (%) ([3]; 1 µg/mℓ): 100%
Control value (%) [4, 5]: 10%
Disease occurrence rate (%) [4, 5]: 64%
Control value (%) ([4]; Foliar spraying, 1,600 µg/mℓ, 5 mℓ per tree, listed as emamectin benzoate): no control activity
Control value (%) [4, 6]: 1%
Disease occurrence rate (%) [4, 6]: 70%
Control value (%) ([4]; Soil drenching, 200 µg/mℓ, 40 mℓ per tree, listed as emamectin benzoate): no control activity
Control value (%) ([4]; Trunk injection, 200 µg/mℓ): 7%
Disease occurrence rate (%) ([4]; Trunk injection, 200 µg/mℓ): 66%
Control value (%) ([4]; Trunk injection, 200 µg/mℓ, listed as emamectin benzoate): not shown at all
